Experimental findings from patent US20240336657A1, “G-ALPHA-S PEPTIDE INHIBITORS AND USES THEREOF” (The Regents of the University of California, priority 2021, published 2024) are described below.

SMILES strings stand for the structures. Positions of bridges follow the written chain, without caps; N, C: chain ends. Non-standard residues stand in square brackets, D forms with d. Residues, ends and D or L forms follow the SMILES beside them.

The target in assay [1] is T1, GppNHp-bound Gαi1 (Homo sapiens, UniProt P63096).
T1 construct: hexahistidine (N, cleaved yes); made in house; host or cells: Escherichia coli BL21(DE3)
T1 sequence (P63096 with tags, fused parts or gaps): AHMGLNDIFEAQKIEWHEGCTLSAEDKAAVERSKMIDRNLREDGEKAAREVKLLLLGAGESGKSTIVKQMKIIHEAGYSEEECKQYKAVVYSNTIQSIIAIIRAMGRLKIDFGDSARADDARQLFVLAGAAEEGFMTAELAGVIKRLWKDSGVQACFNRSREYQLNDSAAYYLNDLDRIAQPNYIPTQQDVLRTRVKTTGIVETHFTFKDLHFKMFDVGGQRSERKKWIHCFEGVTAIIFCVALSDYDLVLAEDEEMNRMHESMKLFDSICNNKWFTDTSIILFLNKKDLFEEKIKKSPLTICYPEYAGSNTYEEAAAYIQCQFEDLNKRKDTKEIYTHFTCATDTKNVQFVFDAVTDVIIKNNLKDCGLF
Put plainly: Bio-layer interferometry (BLI) binding. As to conditions: highest concentration tested. The method, then: (§1) BLI experiments were performed using an OctetRED384 instrument from ForteBio. All experiments were performed at 25° C. using BLI buffer (10 mM HEPES pH 7.4, 150 mM NaCl, 1 mM MgCl2, 0.05% Tween-20, 0.1% DMSO, 0.2 mM GppNHp or GDP). Cyclic peptides were diluted to a series of concentrations in BLI buffer plus 10 μM Biotin. Assays were conducted in Greiner 384well, black, flat bottom polypropylene plates containing the protein solutions, BLI buffer plus 10 μM Biotin for dissociation, and serial dilutions of cyclic peptides to be tested.
(§2) Biotinylated proteins were immobilized on Streptavidin biosensors by dipping sensors into plate wells containing protein solutions at a concentration of 100-150 nM. Protein loading is around 2-3 nm. Sensors loaded with proteins were moved and dipped into wells with BLI buffer plus 10 μM Biotin to block unlabeled Streptavidin. Association-dissociation cycles of compounds were started by moving and dipping sensors to cyclic peptides dilutions and BLI buffer plus 10 μM Biotin wells alternatively. Association and dissociation times were carefully determined to ensure full association and dissociation.
(§3) Raw kinetic data collected were processed with the Data Analysis software provided by the manufacturer using single reference subtraction in which buffer-only reference was subtracted (For GN13 analysis). Because GD20 analogs have a low level of background binding, we used a double reference subtraction (buffer-only reference and non-protein-loading reference) method to calculate their kinetics values. The resulting data were analyzed based on a 1:1 binding model from which kon and koff values were obtained and then Kd values were calculated.
(In general: Biolayer interferometry detects binding as a change in optical thickness at a sensor tip.)

Assay [2] deals with T2, GDP-bound Gαi1 (Homo sapiens, UniProt P63096).
T2 construct: hexahistidine (N, cleaved yes); made in house; host or cells: Escherichia coli BL21(DE3)
T2 sequence (P63096 with tags, fused parts or gaps): as above
Put plainly: Bio-layer interferometry (BLI) binding. Conditions: highest concentration tested. Here is the method:
as §1, §2, §3

Assay [3] concerns the target GppNHp-bound Gαs (Homo sapiens, UniProt P63092). As to the kind of experiment: Adenylyl cyclase activity assay (Gαs-mediated adenylyl cyclase activation, cAMP production, LANCE Ultra cAMP kit). The class given is biochemical. On the set-up: made in house; host or cells: Escherichia coli BL21(DE3). As to conditions: 6.25 μM of GN13; in the presence of Gβ1/γ2. An excerpt: Active state binding cyclic peptide GN13 blocks Gαs-mediated adenylyl cyclase activation. In order to determine whether (Gαs/GppNHp) specific binders inhibit Gαs activity, we assayed the ability of Gαs to activate its downstream effector adenylyl cyclase (AC) (FIG. 17A). We refer to resynthesized active state binding cyclic peptides with a “GN” (Gαs/GppNHp) preceding their ranking number. […] We then evaluated the inhibitory effect of the top hits on Gαs-mediated adenylyl cyclase activation by measuring production of cAMP in a reconstituted Gαs activity assay (FIG. 17A). […] Cyclic peptides dose dependent inhibition (FIG. 17C). […] WT Gαs at a concentration of 8.5 mg/mL (about 190 μM) in 20 mM HEPES 8.0, 150 mM NaCl, 5 mM MgCl2, 1 mM EDTA-Na 8.0 was diluted to 0.5 μM in dilution buffer (1× PBS 7.4, 0.1% BSA, 1 mM EDTA-Na 8.0, 2 mM DTT, 0.1 mM MgCl2) plus 1 mM GppNHp. […] Reaction mixture was further incubated at room temperature for 2 hours and placed on ice for 5 minutes. cAMP production was initiated by addition of […] of ATP stock (1 mM ATP, 1× PBS 7.4, 0.1% BSA). The reaction was carried out at 30° C. for 10 minutes in a PCR machine and stopped by heating at 95° C. for 3 minutes. The cAMP concentrations were measured by the LANCE Ultra cAMP kit. […] The cAMP concentrations were measured by the LANCE Ultra cAMP kit. cAMP concentrations measurement by the LANCE Ultra cAMP kit. […]
(Cyclic AMP is a second messenger, typically raised through Gs and lowered through Gi signalling.)

Sequence of GppNHp-bound Gαs (P63092 1-380 isoform P63092-2): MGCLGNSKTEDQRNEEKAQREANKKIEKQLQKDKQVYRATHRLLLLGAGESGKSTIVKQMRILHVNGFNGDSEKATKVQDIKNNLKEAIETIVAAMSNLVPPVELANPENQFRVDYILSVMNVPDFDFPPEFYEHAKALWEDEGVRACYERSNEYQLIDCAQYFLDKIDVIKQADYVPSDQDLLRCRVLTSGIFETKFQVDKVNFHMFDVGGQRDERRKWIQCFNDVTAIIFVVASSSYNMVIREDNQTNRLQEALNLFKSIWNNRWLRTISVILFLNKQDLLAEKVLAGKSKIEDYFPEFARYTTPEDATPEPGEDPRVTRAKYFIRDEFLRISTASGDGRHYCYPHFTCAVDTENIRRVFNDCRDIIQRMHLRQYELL

With `CC[C@H](C)[C@@H]1NC(=O)[C@H](C)NC(=O)[C@H](Cc2ccc(O)cc2)NC(=O)[C@H](C(C)C)NC(=O)[C@H](CO)NC(=O)[C@H](CCC(=O)O)NC(=O)[C@H](Cc2ccccc2)NC(=O)[C@@H](Cc2ccc(O)cc2)NC(=O)CSC[C@@H](C(=O)NCC(N)=O)NC(=O)[C@H](CC(C)C)NC(=O)[C@H]([C@@H](C)O)NC(=O)CNC(=O)[C@H](Cc2c[nH]c3ccccc23)NC1=O` [GN13] ({CH2CO}-[dY]FESVYAIWGTLCG-NH2; thioether N-13), the “binding to GppNHp-bound Gαi1” value in assay [1] was “no detectable binding”. Moreover, the “binding to GDP-bound Gαi1” value in assay [2] is given as “no detectable binding”. The “inhibition of adenylyl cyclase activation by Gαs WT” value in assay [3] is “inhibits”.
